The results in this text go back to patent US20190307820A1, “COMPOSITIONS AND METHODS OF USING STAT1/3 INHIBITORS WITH ONCOLYTIC HERPES VIRUS” (priority 2016, published 2019).

Each structure is given as a SMILES string.

This test relates to ICP27 mRNA. Nature of the test: RT-qPCR of ICP27 mRNA in HrR3 infected U87 cells. It counts as cell-based, HSV-1. The settings on record: HrR3 MOI-5, 6 hours. The protocol:
FIGS. 4A-4C show the effect of nifuroxazide on HSV-1 gene expression. (FIG. 4A) U87 cells were treated with HrR3 viruses at a MOI-3 and indicated doses of nifuroxazide. 24 hours post infected, total protein was extracted and subjected to western blot analysis. (FIG. 4B) U87 cells were treated with HrR3 at a MOI-5 and indicated concentration of nifuroxazide for 6 hours. ICP27 mRNA level was detected by RT-qPCR. (FIG. 4C) Relative mRNA level (2^−ΔΔCT) is shown. Data are presented as mean SD, *P<0.05 vs corresponding vehicle treatment.
In this example, the underlying mechanism of nifuroxazide mediated oHSV-1 replication enhancement was examined. The effect of nifuroxazide on viral immediate early gene, ICP27 and ICP4 expression was established by Western blot analysis.

For the compound `O=C(N/N=C/c1ccc([N+](=O)[O-])o1)c1ccc(O)cc1` [nifuroxazide, Benzoic acid, 4-hydroxy-, [(5-nitro-2-furanyl)metylene]hydrazide], the “ICP27 mRNA expression” value is on record as “up-regulation of ICP27 mRNA expression”.
